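Exposure lasted 48 hours, with cells grown in 96-well plates and compounds tested at five concentrations. The concentration for full growth arrest is given as TGI.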
Assays:
Test in all cases: growth of human tumour cells (NCI), 48 h
[1] = test system: NCI-H23 lung
[2] = test system: SF-295 CNS
[3] = test system: UACC-62 melanoma
[4] = test system: BT-549 breast
[5] = test system: SR leukemia
[6] = test system: A498 renal
[7] = test system: SW-620 colon
[8] = test system: MOLT-4 leukemia
[9] = test system: DU-145 prostate
[10] = test system: COLO 205 colon

Structure (SMILES)	TGI [1] [µM]	TGI [2] [µM]	TGI [3] [µM]	TGI [4] [µM]	TGI [5] [µM]	TGI [6] [µM]	TGI [7] [µM]	TGI [8] [µM]	TGI [9] [µM]	TGI [10] [µM]
Cc1cc(S(=O)(=O)Nc2n[nH]c(Nc3ccccc3)n2)c(SCC(=O)O)cc1Cl	> 100	> 100	> 100	> 100	> 100	> 100	> 100	> 100	> 100	> 100
CCCCCCCCCCCCNC(=O)CCC(NC(=O)c1ccc(N(C)Cc2cnc3nc(N)nc(N)c3n2)cc1)C(=O)NCCCCCCCCCCCC (stereo not given)	> 100	> 100	> 100	> 100	32.3	> 100	> 100	> 100	> 100	> 100
C#CCOCC12C=CC(O1)C1COC(=O)C12 (stereo not given)	> 100	> 100	> 100	> 100	> 100	> 100	> 100	> 100	> 100	> 100
O=C1CS/C(=N/N=C/c2cn(Cc3ccc(Cl)cc3Cl)c3ccccc23)N1	> 100	> 100	> 100	> 100	> 100	46.5	> 100	> 100	> 100	> 100
C[n+]1c(-c2ccc(NC(=O)c3ccc(C(=O)Nc4ccc(-c5cn6ccccc6[n+]5C)cc4)cc3)cc2)cn2ccccc21	> 100	> 100	> 100	> 100	> 100	> 94.9	> 100	> 100	> 100	> 100
CCOc1snc(C(Cl)(Cl)Cl)c1Cl	44.3	74.7	> 100	70.6	35.6	62.8	> 100	38	> 100	48.4
O=C1/C(=C/c2ccncc2)C(n2cccc2)c2c(Br)sc(Br)c21 (stereo not given)	11.6	26.1	7.5	16.8	9.51	39	3.55	4.64	12.9	28.6
O=C(Sc1c(-c2ccccc2)c(=O)n(-c2ccccc2)c(=S)n1-c1ccccc1)c1ccco1	> 100	> 100	> 100	> 100	> 78.9	> 100	> 100	> 100	> 100	> 100
CCOC(=O)/C=C(/C=C\COC1CCCCO1)c1ccccc1 (stereo not given)	> 100	76.1	88.6	> 100	53.8	> 100	80.4	80.3	> 100	> 100
S=c1[nH]nc(Cn2c3ccc(Br)cc3c3nc4ccccc4nc32)n1C1CCCCC1	42.1	49.5	41.1	> 83	60.6	58.1	> 100	28.6	> 100	> 59.8
COc1cccc(N2C(=O)CS(=O)(=O)C2c2cccc(Oc3ccccc3)c2)c1 (stereo not given)	> 100	> 100	24.7	61.4	13.1	36.7	> 100	57.6	> 100	42.4
O=P(OCc1ccccc1)(OCc1ccccc1)C(O)/C=C/c1ccccc1 (stereo not given)	44.6	49.4	31.4	71.2	50.7	35.2	68.3	48.1	> 100	44.9
COc1ccc2c(c1)-c1c(c3cc(OC)ccc3n1CCN(C)C)CC2	29.6	34.3	22.8	26.9	25.1	24.1	31.1	33.8	26.7	25.5
CC(=O)OCC(=O)O[C@@H]1[C@H]2[C@@H](OC(=O)c3ccccc3)[C@@H](C)C[C@]2(O)[C@H](OC(C)=O)[C@@]2(C)C[C@]1(OC(C)=O)C[C@H]1C(=O)C(C)(C)[C@@H](OC(C)=O)[C@@H]12	> 25	> 25	> 25	> 25	> 25	> 23.8	> 25	> 25	> 25	> 25
COC(=O)C1=C(C(=O)OC)SC(=C2SC3=C(SC(=C4SCCS4)S3)S2)S1	> 100	> 100	> 100	> 100	> 100	> 100	> 100	> 100	> 100	> 100
N#Cc1nc(C2CCC(=O)O2)oc1N (stereo not given)	> 100	> 100	> 100	> 100	> 100	> 100	> 100	> 100	> 100	> 100
